Target: T1, Human Factor XIIa (Homo sapiens, UniProt P00748)
T1 construct: purchased Enzyme Research Laboratories
T1 sequence (P00748 373-615 limits assumed): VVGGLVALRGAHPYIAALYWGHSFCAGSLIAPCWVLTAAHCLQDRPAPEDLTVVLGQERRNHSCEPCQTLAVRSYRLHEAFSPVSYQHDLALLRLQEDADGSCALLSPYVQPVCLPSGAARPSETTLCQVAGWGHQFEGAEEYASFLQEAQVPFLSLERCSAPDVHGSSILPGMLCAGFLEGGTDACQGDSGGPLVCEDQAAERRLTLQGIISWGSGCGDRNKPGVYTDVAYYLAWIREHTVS
Assay: Factor XIIa inhibitory activity in vitro (fluorogenic substrate H-DPro-Phe-Arg-AFC)
Format: biochemical
Conditions: 25° C., class symbols, read-out: Human FXIIa IC50
Summary of the method: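 Enzyme incubated at 25° C with fluorogenic substrate H-DPro-Phe-Arg-AFC and a range of compound concentrations. Residual activity taken as initial reaction rate from […], giving IC50.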

| IC50 [µM] | Structure (SMILES) |
| --- | --- |
| 1 to 3 | CC1CCCC(C)N1CC(=O)N[C@@H](Cc1ccc(F)c(F)c1)C(=O)NCc1cnc2[nH]cc(Cl)c2c1 (some centres unmarked) [Example 3.101] |
| 10 to 40 | COc1ncccc1C(=O)N[C@@H](Cc1ccc(F)c(F)c1)C(=O)NCc1ccc2c(N)nccc2c1 [Example 0.42] |
| 3 to 10 | Nc1nccc2cc(CNC(=O)[C@H](Cc3ccc(F)c(F)c3)NC(=O)c3ccn[nH]3)ccc12 [Example 0.29] |
| 0.1 to 0.279 | CC(C)N1CCCC[C@@H]1C(=O)N[C@@H](Cc1ccc(F)c(F)c1)C(=O)NCc1ccc2c(N)nccc2c1 [Example 0.02] |
| 3 to 10 | Cc1cc2ncc(C(=O)N[C@@H](Cc3ccc(F)c(F)c3)C(=O)NCc3ccc4c(N)nccc4c3)c(C)n2n1 [Example 0.36] |
| 10 to 40 | Cc1nc2ccccc2n1CCC(=O)N[C@@H](Cc1ccc(F)c(F)c1)C(=O)NCc1ccc2c(N)nccc2c1 [Example 20.06] |
| 10 to 40 | C[C@@H]1CCC[C@H](C)N1CC(=O)N[C@@H](Cc1ccc(F)c(F)c1)C(=O)NCc1ccc2[nH]cnc2c1 [Example 3.103] |
| 10 to 40 | C[C@@H]1CCC[C@H](C)N1CC(=O)NCC(=O)NCc1ccc2c(N)nccc2c1 [Example 39.03] |
| 3 to 10 | COc1cncc(C(=O)N[C@@H](Cc2ccc(F)c(F)c2)C(=O)NCc2ccc3c(N)nccc3c2)c1 [Example 0.12] |
| 10 to 40 | Nc1nccc2cc(CNC(=O)[C@H](Cc3ccc(F)c(F)c3)NC(=O)C3CCC(O)CC3)ccc12 (some centres unmarked) [Example 0.56] |
| 3 to 10 | CC(C)c1cc(C(=O)N[C@@H](Cc2ccc(F)c(F)c2)C(=O)NCc2ccc3c(N)nccc3c2)no1 [Example 0.75] |
| 0.28 to 1 | CC(C)N(CC(=O)N[C@@H](Cc1ccc(F)c(F)c1)C(=O)NCc1ccc2c(N)nccc2c1)C(C)C [Example 3.09] |
| 10 to 40 | Nc1nccc2cc(CNC(=O)[C@@H](N)Cc3csc4ccccc34)ccc12 [Example 24.01] |
| 10 to 40 | C[C@@H]1CCC[C@H](C)N1C(=O)N[C@H](CC(=O)NCc1ccc2c(N)nccc2c1)Cc1ccccc1 [Example 39.07] |
| 10 to 40 | CC(C)n1nnc2cc(C(=O)N[C@@H](Cc3ccc(F)c(F)c3)C(=O)NCc3ccc4c(N)nccc4c3)ccc21 [Example 0.38] |
| 3 to 10 | Cc1cc(C(=O)N[C@@H](Cc2ccc(F)c(F)c2)C(=O)NCc2ccc3c(N)nccc3c2)n[nH]1 [Example 0.14] |
| 10 to 40 | CCCS(=O)(=O)N[C@@H](Cc1ccc(F)c(F)c1)C(=O)NCc1ccc2c(N)nccc2c1 [Example 55.01] |
| 10 to 40 | COc1ccc(CNC(=O)[C@H](C)NC(=O)[C@@H](CCc2ccccc2)NC(C)C)cc1Cl [Example 9.11] |
| 10 to 40 | C[C@@H]1CCC[C@H](C)N1CC(=O)NC(C)(C)C(=O)NCc1ccc2c(N)nccc2c1 [Example 39.08] |
| 3 to 10 | CC(C)N[C@H](CCc1ccccc1)C(=O)N[C@@H](C)C(=O)NCc1ccc(CN)cc1 [Example 9.10] |
| 1 to 3 | C[C@@H]1CCC[C@H](C)N1CC(=O)N[C@@H](CCc1ccccc1)C(=O)NCc1ccc2c(N)nccc2c1 [Example 3.15] |
| 0.03 to 0.1 | C[C@@H]1CCC[C@H](C)N1CC(=O)N[C@@H](Cc1csc2ccccc12)C(=O)NCc1ccc2c(N)nccc2c1 [Example 3.10] |
| 3 to 10 | Cc1cc(C)c(C(=O)N[C@@H](Cc2ccc(F)c(F)c2)C(=O)NCc2ccc3c(N)nccc3c2)[nH]1 [Example 0.01] |
| 10 to 40 | N#Cc1ccc(CS(=O)(=O)N[C@@H](Cc2ccc(F)c(F)c2)C(=O)NCc2ccc3c(N)nccc3c2)cc1 [Example 55.04] |
| 1 to 3 | C[C@H](NC(=O)[C@@H](CCc1ccccc1)NCc1ccccc1)C(=O)NCc1ccc2[nH]cc(Cl)c2c1 [Example 9.25] |

| IC50 [µM] | Structure (SMILES) |
| --- | --- |
| 10 to 40 | COc1ccc(OCCC(=O)N[C@@H](Cc2ccc(F)c(F)c2)C(=O)NCc2ccc3c(N)nccc3c2)cc1 [Example 20.01] |
| 10 to 40 | Nc1nccc2cc(CNC(=O)[C@H](Cc3ccc(F)c(F)c3)NC(=O)c3ccccc3N3CCOCC3)ccc12 [Example 0.04] |
| 0.28 to 1 | CC(C)N(C)[C@H](C)C(=O)N[C@@H](Cc1ccc(F)c(F)c1)C(=O)NCc1ccc2c(N)nccc2c1 [Example 5.102] |
| 1 to 3 | C[C@@H]1CCC[C@H](C)N1CC(=O)N1CCCC[C@H]1C(=O)NCc1ccc2c(N)nccc2c1 [Example 32.03] |
| 10 to 40 | Nc1nccc2cc(CNC(=O)[C@H](Cc3ccc(F)c(F)c3)NC(=O)CCn3cnc4ccccc43)ccc12 [Example 20.05] |
| 10 to 40 | C[C@H](NC(=O)[C@@H](CCc1ccccc1)NC(=O)c1ccccc1)C(=O)NCc1ccc2c(N)nccc2c1 [Example 6.26] |
| 3 to 10 | Nc1nccc2cc(CNC(=O)[C@H](Cc3ccc(F)c(F)c3)NC(=O)c3cccnn3)ccc12 [Example 0.15] |
| 10 to 40 | C[C@H](NC(=O)[C@@H](CCc1ccccc1)NS(C)(=O)=O)C(=O)NCc1cnc2[nH]cc(Cl)c2c1 [Example 9.21] |
| 3 to 10 | C[C@@H]1CCC[C@H](C)N1CC(=O)N[C@@H](Cc1ccc(F)c(F)c1)C(=O)NCc1cccc2[nH]ccc12 [Example 34.03] |
| 3 to 10 | Nc1nccc2cc(CNC(=O)[C@H](Cc3ccc(F)c(F)c3)NC(=O)CCS(=O)(=O)c3ccccc3)ccc12 [Example 0.41] |
| 10 to 40 | CC(C)c1cc(C(=O)N[C@@H](Cc2ccc(F)c(F)c2)C(=O)NCc2ccc3c(N)nccc3c2)n(C)n1 [Example 0.90] |
| 10 to 40 | Nc1nccc2cc(CNC(=O)[C@H](Cc3ccc(F)c(F)c3)NC(=O)c3ccc(-n4ccnc4)nc3)ccc12 [Example 0.10] |
| 3 to 10 | Cc1nccn1CCC(=O)N[C@@H](Cc1ccc(F)c(F)c1)C(=O)NCc1ccc2c(N)nccc2c1 [Example 3.31] |
| 10 to 40 | CC(C)(O)CC(=O)N[C@@H](Cc1ccc(F)c(F)c1)C(=O)NCc1ccc2c(N)nccc2c1 [Example 3.28] |
| 10 to 40 | Nc1nccc2cc(CNC(=O)[C@H](Cc3ccc(F)c(F)c3)NC(=O)Cc3ccccn3)ccc12 [Example 3.34] |
| 1 to 3 | Nc1nccc2cc(CNC(=O)CNC(=O)[C@@H](CCc3ccccc3)NS(=O)(=O)Cc3ccccc3)ccc12 [Example 18.102] |
| 3 to 10 | Nc1nccc2cc(CNC(=O)[C@@H]3CCCN(C(=O)[C@H](N)CCc4ccccc4)C3)ccc12 [Example 17.04] |
| 3 to 10 | N#Cc1cccc(C(=O)N[C@@H](Cc2ccc(F)c(F)c2)C(=O)NCc2ccc3c(N)nccc3c2)c1 [Example 0.25] |
| 1 to 3 | Cc1ccc(C)c(S(=O)(=O)NCC(=O)N[C@@H](Cc2ccc(F)c(F)c2)C(=O)NCc2ccc3c(N)nccc3c2)c1 [Example 55.05] |
| 10 to 40 | CC(C)N1CCC[C@@H]1C(=O)N[C@@H](Cc1ccc(F)c(F)c1)C(=O)NCc1ccc2[nH]ncc2c1 [Example 44.05] |
| 3 to 10 | Nc1nccc2cc(CNC(=O)[C@H](Cc3ccc(F)c(F)c3)NC(=O)c3cccc(-n4cccn4)c3)ccc12 [Example 0.05] |
| 10 to 40 | CN1CCN(CC(=O)N[C@@H](Cc2ccc(F)c(F)c2)C(=O)NCc2ccc3c(N)nccc3c2)CC1 [Example 3.40] |
| 10 to 40 | Nc1nccc2cc(CNC(=O)[C@H](Cc3ccc(F)c(F)c3)NC(=O)c3cccnc3)ccc12 [Example 0.23] |
| 10 to 40 | Nc1nccc2cc(CNC(=O)[C@H](Cc3ccc(F)c(F)c3)NC(=O)Cc3nc(-c4cccnc4)n[nH]3)ccc12 [Example 3.32] |
| 3 to 10 | Nc1nccc2cc(CNC(=O)[C@H](Cc3ccc(F)c(F)c3)NC(=O)c3ccc[nH]c3=O)ccc12 [Example 0.13] |

— patent publication US20220298138A1, “ENZYME INHIBITORS” (KALVISTA PHARMACEUTICALS LIMITED, priority 2019, published 2022)
